What is called IC50 is the concentration that inhibits the measured activity by half. Higher therefore signals lower potency.

Molecules are shown by their SMILES.

From patent US11260100B2, “Compositions targeting the interaction domain between p27Kip1 and Brk and methods of use thereof to inhibit p27 Y phosphorylation and cdk4 activity” (The Research Foundation for the State University of New York, priority 2014, dated 2022) come the findings set out here.

For series [1], the system named is MCF7 mock, WT, KM and YF cells. The series is described as follows: Viability of PD0332991 treated Brk expressing MCF7 lines. As to conditions: all concentrations of the drug. It counts as cell-based, human. An excerpt: The PCR fragments were ligated to the T7pGEMEX human His-p27 or T7pGEMEX human Flag-p27 plasmid for expression in E. coli. Mutants Y74F, Y88F, and Y88/89F were previously described (12). Flag-tagged p27 mutants were purified by Flag-immunoprecipitation with Flag antibody (M-2, Sigma F-18C9) and eluted with Flag peptide (Sigma F-4799) according to manufacturer's protocol. His-tagged p27 mutants were purified by FPLC via his-trap affinity chromatography (His-Trap HP, GE Healthcare 71-5247-01). The affinity column was stripped according to manufacturer's protocol, then washed with 5 column volumes of 100 mM CoCl2. The crude material was applied with a loading buffer consisting of 6 M urea, 500 mM NaCl, 50 mM Tris-HCl, pH 7.5 and 20% glycerol. The material was washed with 500 mM NaCl, 50 mM Tris-HCl, pH 7.5 and 10% glycerol. The purified material was eluted with 500 mM imidazole,20 mM Hepes pH 7.4 and 1 M KCl. The protein was then dialyzed overnight in a solution of 25 mM Hepes pH 7.7, 150 mM NaCl, 5 mM MgCl2 and 0.05% NP40. All purified proteins were analyzed by Coomassie and immunoblot analysis. […] Cells were counted using the automated cell counter (BioRad TC-20).Viability was measured by Trypan Blue staining and counted using the cell counter. • Immunoprecipitation. […]

In a further series the test system is MCF7 (ER/PR+, Her2-). The series is described as follows: Palbociclib sensitivity of breast cancer line. It counts as cell-based. The following applies: Homo sapiens; MCF7, high responder.
A further series concerns HCC1954 (ER/PR-, Her2+). The series is described as follows: Palbociclib sensitivity of breast cancer line. It is filed as cell-based. As to conditions: Homo sapiens; HCC1954, non-responder.
In a further series the target is T1, cdk2 (Homo sapiens, UniProt P24941).
T1 construct: added to or expressed in MCF7 breast cancer cells on day 2 post plating; endogenous in cells; host or cells: MCF7 (ALT-MCF7 tetracycline-inducible line)
As to the kind of experiment: Immunoblot of cdk2T160 as measure of activated cdk2 (FIG. 10). It counts as cell-based. The following applies: MCF7, drugs at IC50. On the procedure:
FIG. 10: ALT BRK inhibits both CDK4 and CDK2. ALT, Palbociclib alone or in combination were added to or expressed in MCF7 breast cancer cells on day 2 post plating. Drugs were added at their IC50 concentration, based on previous results. ALT is expressed from an ALT-MCF7 tetracycline inducible cell line generated in the Blain lab. When tetracycline is added to the cell culture media, ALT is expressed in these cells. Vector: no tetracycline was added, so no ALT induction was detected. Drugs and media were replaced every two days. Cells were harvested every two days, lysed and used in immunoblot analysis. Actin: loading control. pRBser780 is a phospho-specific antibody that recognizes sites phosphorylated by cdk4, so is a measure of active cdk4. cdk2T160 recognizes a required phosphorylation event on residue […] and is a measure of activated cdk2.
Additional experiments were performed assessing activity of Brk in combination with Palbociclib. The data presented in FIGS. 9A and 9B reveal that Palbociclib and Brk inhibit proliferation for 2 days, and then resistance is observed (proliferation increases). Alt maintained arrest for roughly 10 days (50% inhibition of proliferation is detected). […] Alt-Brk/Palbociclib combination leads to a more durable cell cycle arrest. Mono therapy treated cells start to become resistant between day 8-10. […]
(Immunoblotting shows a protein as a band on a membrane.)

For `CC(=O)c1c(C)c2cnc(Nc3ccc(N4CCNCC4)cn3)nc2n(C2CCCC2)c1=O` [PD0332991], the viability entry in series [1] is “unchanged”. For the same compound, the IC50 in the series on MCF7 (ER/PR+, Her2-) is 200 nM; in the series on HCC1954 (ER/PR-, Her2+), above 1000 nM. Further, the “cdk2 activity (cdk2T160)” value at cdk2 was “does not inhibit cdk2”.
